Experiment [1] deals with Desulfovibrio vulgaris Hildenborough (DvH). Description: Carbon steel coupon weight loss analysis in DvH cultures. It counts as cell-based. The procedure: (§1) Carbon steel coupons were incubated in the presence of 0 and 2 mM indole, with and without an inoculum of DvH.
(§2) The metal loss of the carbon steel coupons was measured. FIG. 1 is a bar graph comparing corrosion as measured in coupon weight loss under the compound (indole) and SRB (DvH) tested.
(§3) Steel coupons were incubated in cultures of DvH for three days with and without indole and then the coupons were measured to determine the amount of metal loss due to corrosion. […] The error bars represent the standard error of the mean from 2 replicates.
The wild-type D. vulgaris Hildenborough (DvH) was obtained from Judy Wall at the University of Missouri and Adam Deutchbauer at the Lawrence Berkeley National Laboratory. Freezer stocks of DvH containing 10% glycerol were used to inoculate overnight cultures. The growth media (L30S30B2) contained 30 mM lactate, 30 mM sulfate, 8 mM MgCl2, 20 mM NH4Cl, 2.2 mM phosphate buffer, 0.6 mM CaCl2, 24 mM NaCO3, 0.02% resazurin, 0.06 mM FeCl2, trace elements and Thauer's vitamins (Lee et al., “Indole as an intercellular signal in microbial communities,” 2010, pp. 426-444) with pH adjusted to 7.2. Media was bubbled with 15% CO2 balance N2 and sodium dithionite was added immediately before inoculation to a final concentration of […]. Media containing 0-4 mM indole was made by anaerobically mixing varied volumes of L30S30B2 and L30S30B2 supplemented with 4 mM indole (Sigma-Aldrich, 13408).
(§4) Rectangular X52 carbon steel coupons were polished on 600 grit sand paper and weighed prior to the experiment. 60 ml of L30S30B2 media containing 0-2 mM indole was anaerobically transferred into each autoclaved serum bottle with 1 coupon hung on plastic fishing wire. 1 ml of a DvH overnight culture was inoculated into each bottle and incubated at 30° C. with gentle shaking for 3 days. After the incubation the coupons were descaled with Clarke's solution (tin choloride and antimony oxide in concentrated hydrochloric acid), rinsed with water, dried under nitrogen gas, and weighed again. The metal weight loss after exposure to DvH was then calculated.

A short description of experiment [2]: Carbon steel coupon weight loss in a sterile environment without DvH inoculation. Particulars: 2 mM indole, carbon steel coupons, FIG. 1. How it is done:
as §1, §2, §4

Experiment [3] concerns Desulfovibrio vulgaris Hildenborough (DvH). As to the kind of experiment: DvH metabolism by ion chromatography (lactate, sulfate, acetate). In kind it is cell-based. Particulars: 0.5-2 mM indole, FIG. 2B, 2 replicates. The procedure:
as §3
The wild-type D. vulgaris Hildenborough (DvH) was obtained from Judy Wall at the University of Missouri and Adam Deutchbauer at the Lawrence Berkeley National Laboratory. Freezer stocks of DvH containing 10% glycerol were used to inoculate overnight cultures. The growth media (L30S30B2) contained 30 mM lactate, 30 mM sulfate, 8 mM MgCl2, 20 mM NH4Cl, 2.2 mM phosphate buffer, 0.6 mM CaCl2, 24 mM NaCO3, 0.02% resazurin, 0.06 mM FeCl2, trace elements and Thauer's vitamins (Lee et al., “Indole as an intercellular signal in microbial communities,” 2010, pp. 426-444) with pH adjusted to 7.2. […]
Ion Chromatography (IC)—One milliliter of cultures were extracted at the beginning and the end of the experiment, centrifuged at 14000 rpm for 2 min, filtered through 0.2 μm cellulose acetate filters, and kept at −20° C. until further IC analysis. Anions of lactate, sulfate, and acetate were quantified using suppressed conductivity on a Dionex ICS-5000 Reagent-Free HPIC System with a Dionex IonPac AS 11-HC column (0.4 mm×250 mm, Thermo Fisher, Massachusetts, USA). […]

Regarding `c1ccc2[nH]ccc2c1` [indole], the “reduction of corrosion (coupon weight loss) compared to the no indole treatment” value in experiment [1] (2 mM indole, carbon steel coupons, in the presence of DvH (MIC), FIG. 1) is reported as 2 fold. The “metal loss of coupons incubated in the absence of indole relative to coupons in the presence of indole” value in experiment [1] (0.5-2 mM indole, steel coupons in DvH cultures, three days, FIG. 2A) is around 2 fold. The “corrosion of metal coupons” value in experiment [1] (0.5 to 2 mM indole, DvH cultures, three days) was “little to no corrosion”. In addition, the “reduction in coupon weight loss in sterile environment” value in experiment [2] is reported as “not replicated”. Also, in experiment [3], the “metabolism of DvH (consumption of lactate and sulfate, production of acetate)” value was “not significantly affected”.

The record behind these values is patent US20160360749A1, “METHOD FOR […] […]” (ExxonMobil Research and Engineering Company, priority 2015, published 2016).
